These results are taken from patent publication US20210285024A1, “In vitro Screening Assay of TCPase Modulators” (CENTRE NATIONAL DE LA RECHERCHE SCIENTIFIQUE (CNRS), priority 2018, published 2021).

For assay [1], the system named is HEK293T cells deficient for VASH1 and VASH2. Particulars: Nieuwenhuis et al., 2017; cited from earlier work.
For another assay, the target named is SVBP-VASH2 complex (Homo sapiens, UniProt Q86V25). In words: Detyrosination assay using tubulin purified from Sf9 cells and recombinant SVBP-VASH2 complex. The settings on record: 0.1 μM and 10 μM; 15 min at 37° C.; microtubules from Sf9 tubulin; western blot. On the technique in general: In western blotting, separated proteins are transferred to a membrane and probed.
Chain of SVBP-VASH2 complex (Q86V25 whole entry): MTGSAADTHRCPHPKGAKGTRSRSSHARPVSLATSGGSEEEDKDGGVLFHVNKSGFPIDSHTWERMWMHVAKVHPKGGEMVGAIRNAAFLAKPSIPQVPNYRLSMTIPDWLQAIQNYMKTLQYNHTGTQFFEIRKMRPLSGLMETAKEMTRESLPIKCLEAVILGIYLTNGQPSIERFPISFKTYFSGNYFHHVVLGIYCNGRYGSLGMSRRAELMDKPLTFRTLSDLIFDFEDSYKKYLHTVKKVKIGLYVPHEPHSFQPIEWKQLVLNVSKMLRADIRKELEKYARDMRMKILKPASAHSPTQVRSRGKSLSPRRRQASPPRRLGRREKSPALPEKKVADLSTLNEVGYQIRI
Chain of SVBP-VASH2 complex (Q8N300 whole entry partner): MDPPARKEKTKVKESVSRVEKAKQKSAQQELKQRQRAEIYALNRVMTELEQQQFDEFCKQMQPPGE

Method for SVBP-VASH2 complex: FIG. 17: Detyrosination assay performed using tubulin purified from Sf9 cells and recombinant SVBP-VASH2 complex in absence or presence of putative inhibitors of detyrosinase. […] FIG. 17b: Western blot. FIG. 17c: Representation of relative optical density (detyrosination/tubulin).
A negative control sample consisting of the tubulin in the reaction buffer in absence of the detyrosinase (SVBP-VASH2 complex) was also analysed by western blotting (FIG. 17b).

On to `CC(=O)O[C@H]1C(=O)[C@@]2(C)[C@H]([C@H](OC(=O)c3ccccc3)[C@]3(O)C[C@H](OC(=O)[C@H](O)[C@@H](NC(=O)c4ccccc4)c4ccccc4)C(C)=C1C3(C)C)[C@]1(OC(C)=O)CO[C@@H]1C[C@@H]2O` [Taxol, paclitaxel], for which, in assay [1], the alpha-tubulin detyrosination entry is listed as “robust increase”.

Turning to `C=C1C(=O)O[C@@H]2C[C@@]3(C)CCC[C@H](C)C3=C[C@H]12` [alantolactone, Alantolactone], the “reduction of the detyrosinating activity of SVBP-VASH2 complex” value at SVBP-VASH2 complex is “did not result in any significant reduction”.

For `C=C1C(=O)O[C@@H]2/C=C(\C)CC/C=C(\C)CC[C@@H]12` [costunolide, Costunolide], the “reduction of the detyrosinating activity of SVBP-VASH2 complex” value at SVBP-VASH2 complex is reported as “did not result in any significant reduction”.
